Earlier results on 1 compound are cited in patent US20170327462A1, “(Z)-3,4,5-TRIMETHOXYSTYRYLBENZENESULFONAMIDES AS POTENTIAL ANTICANCER AGENTS” (COUNCIL OF SCIENTIFIC & INDUSTRIAL RESEARCH, priority 2014, published 2017).

The series concerns tubulin. The following applies: binding at colchicine binding site; J. Med. Chem. 2008, 51, 6211; cited from earlier work.

On to `COc1cc(/C=C\c2ccc(OC)c(N)c2)cc(OC)c1` [(Z)-5-(3,5-dimethoxystyryl)-2-methoxyaniline], for which the “inhibition of tubulin polymerization relative to CA-4” value is recorded as “five times stronger than CA-4”.
